{"source": "patent US20220348572A1", "about": "“BRIDGED HETEROCYCLYL-SUBSTITUTED PYRIMIDINE COMPOUND, PREPARATION METHOD THEREFOR, AND PHARMACEUTICAL USE THEREOF” (The National Institutes of Pharmaceutical R&D Co., Ltd., priority 2019, published 2022)", "key": {"JAK1 kinase": {"target": "T1, JAK1 kinase (Homo sapiens, UniProt P23458)", "T1 construct": "purchased Invitrogen PV4744", "T1 sequence (P23458 866-1154 limits assumed)": "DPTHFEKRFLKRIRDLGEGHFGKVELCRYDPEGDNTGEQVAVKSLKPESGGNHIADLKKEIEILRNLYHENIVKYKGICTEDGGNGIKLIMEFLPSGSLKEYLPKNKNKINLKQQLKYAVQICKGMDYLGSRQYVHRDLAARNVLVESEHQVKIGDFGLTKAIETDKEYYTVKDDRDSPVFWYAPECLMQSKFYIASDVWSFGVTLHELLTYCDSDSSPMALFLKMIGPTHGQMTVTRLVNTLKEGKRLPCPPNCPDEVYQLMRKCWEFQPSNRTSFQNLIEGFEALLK", "experiment": "In vitro inhibitory activity on JAK1 kinase (ADP-Glo Kinase Assay)", "assay_type": "biochemical", "conditions": "JAK1 kinase 4 nM, 1 mM ATP", "in_short": "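JAK1 (4 nM final) preincubated with compound 15 min at 25° C., then substrate mix (1 mM ATP, IRS1 0.05 mg/ml) added for 60 min at 25° C. ADP-Glo luminescence read-out; top concentration 10 μM, 3-fold, 10 points, duplicates; IC50 reported in ranged classes.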"}, "AIA in rats": {"system": "AIA in rats", "experiment": "Pharmacodynamic study for AIA in rats (complete Freund's adjuvant, joint swelling score)", "assay_type": "in vivo, Lewis rats", "conditions": "for Scoring value Day 1: Day 1, Mean ± SD; for Scoring value Day 1 / Scoring value Day 3 / Scoring value Day 7: AIA Lewis rats; for Scoring value Day 3: Day 3, Mean ± SD; for Scoring value Day 7: Day 7, Mean ± SD; for symptoms of arthritis induced by complete Freund's adjuvant (in words): AIA model in rats", "text": "Test Example 4: Pharmacodynamic Studies of the Compounds of Example 1, Example 1-b and Example 3 for AIA in Rats\nExperimental material: complete Freund's adjuvant (Chondrex, 7027)\nExperimental process: The in vivo efficacy of the compounds of the invention was investigated. 8-Week-old female Lewis rats were selected for modeling by complete Freund's adjuvant (J. of Immunology, 2010, 184: 5298-5307) and grouped after 12 days. 7 groups were divided: the model group, the Example 1 low dose group (3 mg/kg), the Example 1 high dose group (30 mg/kg), the Example 1-b low dose group (1 mg/kg), the Example 1-b high dose group (3 mg/kg), the Example 3 low dose group (3 mg/kg) and the Example 3 high dose group (30 mg/kg). The model group was given 0.5% CMC-Na and the rest groups were given the corresponding dose of the compound. The animals were scored according to the degree of joint swelling after 7 days of oral administration (Proc Soc Exp Bio Med 1962, 111: 544-547)."}}}
{"smiles": "Cn1cc(Nc2nccc(C3=CC4CCC(C3)N4C(=O)[C@@H]3CC3(F)F)n2)cn1", "note": "(stereo partly drawn) [Compound 1, ((S)-2,2-difluorocyclopropyl)(3-(2-((1-methyl-1H-pyrazol-4-yl)amino)pyrimidin-4-yl)-8-azabicyclo[3.2.1]oct-2-en-8-yl)methanone]", "values": [{"measurement": "IC50", "setting": "JAK1 kinase", "result": "< 100", "unit": "nM"}, {"measurement": "Scoring value Day 1", "setting": "AIA in rats; 3 mg/kg oral", "result": "3.78 ± 2.54"}, {"measurement": "Scoring value Day 3", "setting": "AIA in rats; 3 mg/kg oral", "result": "2.67 ± 1.22"}, {"measurement": "Scoring value Day 7", "setting": "AIA in rats; 3 mg/kg oral", "result": "0.22 ± 0.44"}, {"measurement": "Scoring value Day 1", "setting": "AIA in rats; 30 mg/kg oral", "result": "4.11 ± 2.52"}, {"measurement": "Scoring value Day 3", "setting": "AIA in rats; 30 mg/kg oral", "result": "0.44 ± 0.73"}, {"measurement": "Scoring value Day 7", "setting": "AIA in rats; 30 mg/kg oral", "result": "0.00 ± 0.00"}, {"measurement": "symptoms of arthritis induced by complete Freund's adjuvant (in words)", "setting": "AIA in rats", "result": "significantly inhibit"}]}
{"smiles": "Cn1cc(Nc2nccc(C3=C[C@H]4CC[C@@H](C3)N4C(=O)[C@@H]3CC3(F)F)n2)cn1", "note": "[Compound 1-b, ((S)-2,2-difluorocyclopropyl)((1R,5S)-3-(2-((1-methyl-1H-pyrazol-4-yl)amino)pyrimidin-4-yl)-8-azabicyclo[3.2.1]oct-2-en-8-yl)methanone]", "values": [{"measurement": "IC50", "setting": "JAK1 kinase", "result": "< 100", "unit": "nM"}, {"measurement": "Scoring value Day 1", "setting": "AIA in rats; 1 mg/kg oral", "result": "3.30 ± 2.67"}, {"measurement": "Scoring value Day 3", "setting": "AIA in rats; 1 mg/kg oral", "result": "3.10 ± 3.51"}, {"measurement": "Scoring value Day 7", "setting": "AIA in rats; 1 mg/kg oral", "result": "3.30 ± 3.71"}, {"measurement": "Scoring value Day 1", "setting": "AIA in rats; 3 mg/kg oral", "result": "3.30 ± 2.67"}, {"measurement": "Scoring value Day 3", "setting": "AIA in rats; 3 mg/kg oral", "result": "0.30 ± 0.95"}, {"measurement": "Scoring value Day 7", "setting": "AIA in rats; 3 mg/kg oral", "result": "1.50 ± 3.75"}, {"measurement": "symptoms of arthritis induced by complete Freund's adjuvant (in words)", "setting": "AIA in rats", "result": "significantly inhibit"}]}
{"smiles": "Cn1cc(Nc2nccc(C3=CC4CCC(C3)N4C(=O)NCC(F)(F)F)n2)cn1", "note": "(stereo not drawn) [Compound 3, 3-(2-((1-methyl-1H-pyrazol-4-yl)amino)pyrimidin-4-yl)-N-(2,2,2-trifluoroethyl)-8-azabicyclo[3.2.1]oct-2-ene-8-carboxamide]", "values": [{"measurement": "IC50", "setting": "JAK1 kinase", "result": "100 to 300", "unit": "nM"}, {"measurement": "Scoring value Day 1", "setting": "AIA in rats; 3 mg/kg oral", "result": "3.78 ± 1.92"}, {"measurement": "Scoring value Day 3", "setting": "AIA in rats; 3 mg/kg oral", "result": "3.78 ± 1.72"}, {"measurement": "Scoring value Day 7", "setting": "AIA in rats; 3 mg/kg oral", "result": "1.33 ± 0.87"}, {"measurement": "Scoring value Day 1", "setting": "AIA in rats; 30 mg/kg oral", "result": "3.44 ± 1.94"}, {"measurement": "Scoring value Day 3", "setting": "AIA in rats; 30 mg/kg oral", "result": "0.56 ± 0.53"}, {"measurement": "Scoring value Day 7", "setting": "AIA in rats; 30 mg/kg oral", "result": "0.00 ± 0.00"}, {"measurement": "symptoms of arthritis induced by complete Freund's adjuvant (in words)", "setting": "AIA in rats", "result": "significantly inhibit"}]}
